Experimental data reported in the supplement of paper PMC10307832.

Key:
Experiment in all cases: relative viability (nuclei count vs DMSO), 5 days (fraction); higher = more cells survive
Bleomycin = compound: CC1=C(N=C(N=C1N)[C@H](CC(=O)N)NC[C@@H](C(=O)N)N)C(=O)N[C@@H]([C@H](C2=CN=CN2)OC3C(C(C(C(O3)CO)O)O)OC4C(C(C(C(O4)CO)O)OC(=O)N)O)C(=O)N[C@H](C)[C@H]([C@H](C)C(=O)N[C@@H]([C@@H](C)O)C(=O)NCCC5=NC(=CS5)C6=NC(=CS6)C(=O)NCCC[S+](C)C)O [Bleomycin]; conditions: main component drawn
How it was run: (§1)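 Five library-drug doses, separated by factors of √10, were pinned into 1536-well plates holding lung cancer cell lines after an overnight stay at 37 °C. Cells were fixed, permeabilised and Hoechst-stained in one step after 5 days without medium change, then imaged at 4×. Viability compares treated-well with vehicle-well nuclei, counted in MetaXpress, as a median across plates. Passing plates had control CV below 25% and at least one doubling.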

Etoposide = compound: COc1cc([C@@H]2c3cc4c(cc3[C@@H](O[C@@H]3O[C@@H]5CO[C@@H](C)O[C@H]5[C@H](O)[C@H]3O)[C@H]3COC(=O)[C@H]23)OCO4)cc(OC)c1O [Etoposide]
How it was run: as §1

Bleomycin + Alpelisib = compound: CC1=C(N=C(N=C1N)[C@H](CC(=O)N)NC[C@@H](C(=O)N)N)C(=O)N[C@@H]([C@H](C2=CN=CN2)OC3C(C(C(C(O3)CO)O)O)OC4C(C(C(C(O4)CO)O)OC(=O)N)O)C(=O)N[C@H](C)[C@H]([C@H](C)C(=O)N[C@@H]([C@@H](C)O)C(=O)NCCC5=NC(=CS5)C6=NC(=CS6)C(=O)NCCC[S+](C)C)O [Bleomycin] + Cc1nc(NC(=O)N2CCC[C@H]2C(N)=O)sc1-c1ccnc(C(C)(C)C(F)(F)F)c1 [Alpelisib] (partner 2 µM); conditions: main component drawn
How it was run: (§2)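 For relative viability, nuclei counts in treated wells were divided by those in vehicle wells. Lung cancer cell lines had been pin-tool dosed in 1536-well plates the day after seeding and cultured for 5 days, then fixed and stained in one step (final 0.05% Triton X-100, 1% formaldehyde, 1 ug/ml Hoechst) and imaged at 4×. Doses were one drug alone or a fixed anchor-drug dose plus five library-drug doses (not always all listed) in √10 steps, and values are duplicate-plate medians.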

Etoposide + Pemetrexed = compound: COc1cc([C@@H]2c3cc4c(cc3[C@@H](O[C@@H]3O[C@@H]5CO[C@@H](C)O[C@H]5[C@H](O)[C@H]3O)[C@H]3COC(=O)[C@H]23)OCO4)cc(OC)c1O [Etoposide] + Nc1nc2[nH]cc(CCc3ccc(C(=O)N[C@@H](CCC(=O)O)C(=O)O)cc3)c2c(=O)[nH]1 [Pemetrexed] (partner 0.2 µM)
How it was run: as §2

Row | Cell Line | relative viability (Bleomycin; 0.01 µM) | relative viability (Bleomycin; 0.03162 µM) | relative viability (Bleomycin; 0.1 µM) | relative viability (Bleomycin; 0.3162 µM) | relative viability (Bleomycin; 1 µM) | relative viability (Etoposide; 0.01 µM) | relative viability (Etoposide; 0.03162 µM) | relative viability (Etoposide; 0.1 µM) | relative viability (Etoposide; 0.3162 µM) | relative viability (Etoposide; 1 µM) | relative viability (Bleomycin + Alpelisib; first compound 0.01 µM) | relative viability (Bleomycin + Alpelisib; first compound 0.03162 µM) | relative viability (Bleomycin + Alpelisib; first compound 0.1 µM) | relative viability (Bleomycin + Alpelisib; first compound 0.3162 µM) | relative viability (Bleomycin + Alpelisib; first compound 1 µM) | relative viability (Etoposide + Pemetrexed; first compound 0.01 µM) | relative viability (Etoposide + Pemetrexed; first compound 0.03162 µM) | relative viability (Etoposide + Pemetrexed; first compound 0.1 µM) | relative viability (Etoposide + Pemetrexed; first compound 0.3162 µM) | relative viability (Etoposide + Pemetrexed; first compound 1 µM)
1 | NCI-H1915 | 0.739 | 0.74 | 0.489 | 0.287 | 0.165 | 1 | 1.1 | 0.891 | 0.889 | 0.684 | 0.896 | 0.888 | 0.68 | 0.325 | 0.167 | 0.504 | 0.516 | 0.484 | 0.474 | 0.459
2 | CAL-12T | 0.755 | 0.824 | 0.545 | 0.273 | 0.202 | 0.946 | 1.04 | 0.797 | 0.726 | 0.333 | 0.666 | 0.883 | 0.433 | 0.235 | 0.244 | 1.02 | 1.29 | 1.07 | 0.963 | 0.484
3 | NCI-H2087 | 0.822 | 1.06 | 0.851 | 0.257 | 0.235 | 0.967 | 1.11 | 0.978 | 0.78 | 0.259 | 0.865 | 0.924 | 0.795 | 0.196 | 0.165 | 0.641 | 0.723 | 0.703 | 0.582 | 0.374
4 | LXF-289 | 0.94 | 0.972 | 0.912 | 0.539 | 0.231 | 1.05 | 1.04 | 1.13 | 0.878 | 0.311 | 0.923 | 1.04 | 0.9 | 0.332 | 0.162 | 0.961 | 0.952 | 1.04 | 0.788 | 0.285
5 | NCI-H520 | 0.901 | 0.92 | 0.816 | 0.747 | 0.602 | 0.881 | 0.879 | 0.636 | 0.87 | 0.709 | 0.759 | 0.796 | 0.863 | 0.543 | 0.402 | 0.633 | 0.801 | 0.708 | 0.65 | 0.485
6 | NCI-H1944 | 0.53 | 0.481 | 0.397 | 0.232 | 0.184 | 0.973 | 1.13 | 0.729 | 0.522 | 0.273 | 0.627 | 0.518 | 0.506 | 0.288 | 0.179 | 0.591 | 0.797 | 0.396 | 0.44 | 0.189
7 | NCI-H2009 | 0.953 | 1.02 | 1.01 | 0.659 | 0.566 | 1.02 | 1.03 | 0.938 | 0.765 | 0.42 | 1.05 | 1.16 | 1.16 | 0.84 | 0.531 | 0.976 | 0.957 | 1.12 | 0.703 | 0.57
8 | 201T | 0.909 | 0.95 | 0.922 | 0.756 | 0.634 | 0.906 | 0.988 | 0.845 | 0.881 | 0.526 | 0.956 | 0.949 | 0.96 | 0.862 | 0.753 | 0.325 | 0.343 | 0.355 | 0.318 | 0.32
9 | NCI-H2347 | 0.915 | 1.03 | 0.918 | 0.461 | 0.558 | 1 | 1.01 | 0.733 | 0.541 | 0.45 | 0.892 | 1.05 | 0.997 | 0.51 | 0.478 | 0.454 | 0.487 | 0.401 | 0.386 | 0.383
10 | LOU-NH91 | 0.838 | 0.689 | 0.614 | 0.448 | 0.339 | 0.978 | 1.01 | 0.853 | 0.826 | 0.486 | 0.604 | 0.498 | 0.469 | 0.388 | 0.322 | 0.403 | 0.414 | 0.469 | 0.359 | 0.346
11 | NCI-H2085 | 0.925 | 0.913 | 0.83 | 0.56 | 0.515 | 0.926 | 1.01 | 0.903 | 0.868 | 0.507 | 0.715 | 0.778 | 0.672 | 0.436 | 0.378 | 0.769 | 0.95 | 0.803 | 0.907 | 0.378
12 | COR-L23 | 0.831 | 0.799 | 0.586 | 0.188 | 0.129 | 0.865 | 1.05 | 0.976 | 0.704 | 0.324 | 0.516 | 0.495 | 0.262 | 0.0744 | 0.0882 | 0.198 | 0.207 | 0.207 | 0.214 | 0.189
13 | BEN | 0.94 | 0.943 | 0.973 | 0.638 | 0.742 | 0.932 | 0.986 |  | 1 | 0.913 | 1.01 | 0.921 | 0.937 | 0.762 | 0.738 | 0.87 | 1.05 |  | 0.727 | 0.669
14 | LK-2 | 0.686 | 0.575 | 0.485 | 0.28 | 0.277 | 0.979 | 1.31 | 0.684 | 0.663 | 0.268 | 0.579 | 0.505 | 0.478 | 0.282 | 0.251 | 0.36 | 0.315 | 0.208 | 0.224 | 0.186
15 | NCI-H441 | 0.626 | 0.922 | 0.862 | 0.651 | 0.42 | 0.923 | 1.03 | 0.751 | 0.308 | 0.172 |  | 0.699 | 0.645 | 0.444 | 0.279 | 0.254 | 0.257 | 0.235 | 0.193 | 0.153
16 | NCI-H596 | 0.775 | 0.754 | 0.637 | 0.377 | 0.412 | 0.866 | 1.03 | 0.685 | 0.877 | 0.734 | 0.377 | 0.686 | 0.395 | 0.259 | 0.269 | 0.463 | 0.539 | 0.488 | 0.546 | 0.477
17 | NCI-H1666 | 0.781 | 0.737 | 0.649 | 0.474 | 0.451 | 0.947 | 0.908 | 0.818 | 0.483 | 0.414 | 0.711 | 0.708 | 0.625 | 0.264 | 0.354 | 0.832 | 0.866 | 0.923 | 0.631 | 0.563
18 | NCI-H1993 | 0.853 | 0.899 | 0.876 | 0.601 | 0.564 | 0.727 | 1.1 | 0.636 | 0.783 | 0.501 | 0.648 | 0.642 | 0.618 | 0.536 | 0.522 |  | 0.662 | 0.502 | 0.543 | 0.399
19 | NCI-H1975 | 0.746 | 0.714 | 0.589 | 0.289 | 0.226 | 0.842 | 1.07 | 0.817 | 0.809 | 0.402 | 0.607 | 0.616 | 0.555 | 0.254 | 0.232 | 0.285 | 0.303 | 0.31 | 0.268 | 0.223
20 | HCC-44 | 0.587 | 0.445 | 0.361 | 0.226 | 0.209 | 1.06 | 1.03 | 1.02 | 0.899 | 0.594 | 0.45 | 0.27 | 0.224 | 0.212 | 0.162 | 0.64 | 0.684 | 0.801 | 0.64 | 0.601
